Where two headings read alike, the source gives them in different places.
How the values were obtained:
[1] = decerebrated newborn cats; high doses; cited from earlier work
[2] = decerebrated newborn rats; cited from earlier work
5HT2 receptor [3] = details: in vivo; cited from earlier work
5HT2A receptor = 5HT2A receptor (Homo sapiens, UniProt P28223); details: cited from earlier work
[4] = biological target: T1, rat stomach fundus (5HT2B) (Rattus norvegicus, UniProt P30994); details: isolated tissue; indicates 5HT2A specificity versus 5HT2B; cited from earlier work
T1 construct: from tissue; host or cells: rat stomach fundus (isolated tissue)
T1 sequence (P30994 whole entry): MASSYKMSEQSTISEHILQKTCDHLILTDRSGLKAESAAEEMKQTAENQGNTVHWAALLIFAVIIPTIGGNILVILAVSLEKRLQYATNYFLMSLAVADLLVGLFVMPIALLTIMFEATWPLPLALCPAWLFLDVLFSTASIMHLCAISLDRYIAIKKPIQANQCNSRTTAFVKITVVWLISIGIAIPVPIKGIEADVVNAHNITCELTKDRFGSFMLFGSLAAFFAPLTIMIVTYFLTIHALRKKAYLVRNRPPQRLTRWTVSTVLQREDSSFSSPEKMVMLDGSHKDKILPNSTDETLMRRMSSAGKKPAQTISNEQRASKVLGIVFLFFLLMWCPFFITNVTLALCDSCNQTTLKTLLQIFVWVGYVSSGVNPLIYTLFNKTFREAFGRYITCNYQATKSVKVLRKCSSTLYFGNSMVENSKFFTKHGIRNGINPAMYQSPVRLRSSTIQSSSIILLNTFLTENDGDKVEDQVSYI

5HT1D receptor = details: cited from earlier work
5HT1A receptor = biological target: T2, 5HT1A receptor (Homo sapiens, UniProt P08908); details: cited from earlier work
T2 sequence (P08908 1-422): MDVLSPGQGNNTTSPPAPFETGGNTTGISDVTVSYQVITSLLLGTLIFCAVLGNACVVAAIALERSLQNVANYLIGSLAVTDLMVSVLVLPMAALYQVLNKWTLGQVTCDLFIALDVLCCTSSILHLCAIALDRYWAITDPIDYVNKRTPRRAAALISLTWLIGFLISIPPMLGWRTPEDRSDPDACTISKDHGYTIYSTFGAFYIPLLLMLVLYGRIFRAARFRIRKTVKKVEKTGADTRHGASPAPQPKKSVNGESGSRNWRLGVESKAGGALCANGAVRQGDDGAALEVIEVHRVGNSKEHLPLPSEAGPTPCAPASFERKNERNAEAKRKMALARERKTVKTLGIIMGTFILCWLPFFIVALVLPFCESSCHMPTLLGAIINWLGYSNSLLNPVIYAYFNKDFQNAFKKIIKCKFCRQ

[5] = tested on: upper airway high resistance syndrome; experiment: double blind clinical study versus placebo in upper airway high resistance syndrome; type: in vivo, human; details: patients; gelatin capsule, for example 5 mg, daily with the evening meal
Description: The effect of compound A is determined during a clinical study carried out according to a double blind design versus placebo in which patients with upper airway high resistance syndrome characterized by the presence of respiratory efforts with repeated wakefulness or microwakefulness and clinical symptoms such as diurnal somnolence and/or hypertension and/or fatigue and/or morning headache and/or nycturia, and the like took part. One gelatin capsule containing an active dose of compound A, for example 5 mg, is administered daily with the evening meal.

5HT2 receptor [6] = details: rodents; cited from earlier work
5HT2C receptor = biological target: T3, 5HT2C receptor (Homo sapiens, UniProt P28335); details: cited from earlier work
T3 sequence (P28335 33-458): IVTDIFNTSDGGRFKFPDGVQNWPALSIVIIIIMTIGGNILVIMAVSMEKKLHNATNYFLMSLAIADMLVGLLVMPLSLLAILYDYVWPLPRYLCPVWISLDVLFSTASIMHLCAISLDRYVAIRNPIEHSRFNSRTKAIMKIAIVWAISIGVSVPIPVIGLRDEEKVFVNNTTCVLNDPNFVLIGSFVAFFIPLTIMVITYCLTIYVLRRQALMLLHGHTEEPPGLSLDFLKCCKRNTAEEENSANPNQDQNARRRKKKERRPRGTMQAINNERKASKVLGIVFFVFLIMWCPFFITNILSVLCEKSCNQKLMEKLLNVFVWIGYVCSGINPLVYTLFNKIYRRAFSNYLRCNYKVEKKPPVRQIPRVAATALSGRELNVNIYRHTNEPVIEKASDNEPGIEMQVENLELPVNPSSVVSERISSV

slow wave sleep = experiment: sleep study in young healthy subjects; type: in vivo, human; details: young (18 to 35 years old) healthy subjects
5HT1B receptor = 5HT1B receptor (Homo sapiens, UniProt P28222); details: cited from earlier work
5HT1B receptor, sequence (P28222 whole entry): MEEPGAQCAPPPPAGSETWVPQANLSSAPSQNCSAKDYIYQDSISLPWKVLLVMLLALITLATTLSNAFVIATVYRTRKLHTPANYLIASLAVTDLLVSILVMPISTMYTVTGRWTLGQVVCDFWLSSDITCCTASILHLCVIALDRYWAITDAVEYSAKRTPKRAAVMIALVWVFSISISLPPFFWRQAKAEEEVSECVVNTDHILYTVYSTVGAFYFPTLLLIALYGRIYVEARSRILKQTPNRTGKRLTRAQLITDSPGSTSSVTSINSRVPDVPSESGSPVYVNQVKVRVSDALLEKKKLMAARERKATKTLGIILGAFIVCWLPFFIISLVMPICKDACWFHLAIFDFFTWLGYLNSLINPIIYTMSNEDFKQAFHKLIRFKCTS

spinal 5HT2 receptors = details: newborn rat tissue preparations in vitro, cited from earlier work
5HT2 receptor [7] = details: rats; cited from earlier work
5HT2 receptors = details: administered systemically; English bulldog; cited from earlier work

5HT2A receptor, sequence (P28223 whole entry): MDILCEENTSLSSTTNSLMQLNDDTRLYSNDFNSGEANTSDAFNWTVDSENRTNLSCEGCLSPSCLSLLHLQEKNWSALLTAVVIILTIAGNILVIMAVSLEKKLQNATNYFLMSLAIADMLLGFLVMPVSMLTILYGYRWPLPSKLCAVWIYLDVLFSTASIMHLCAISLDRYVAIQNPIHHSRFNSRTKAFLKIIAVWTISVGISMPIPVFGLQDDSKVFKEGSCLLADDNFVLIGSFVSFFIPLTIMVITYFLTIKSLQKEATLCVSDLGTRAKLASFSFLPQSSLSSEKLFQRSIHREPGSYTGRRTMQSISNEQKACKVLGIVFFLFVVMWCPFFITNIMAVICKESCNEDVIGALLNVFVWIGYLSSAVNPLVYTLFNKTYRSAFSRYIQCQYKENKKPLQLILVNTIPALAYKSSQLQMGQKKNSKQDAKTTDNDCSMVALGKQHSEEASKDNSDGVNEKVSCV

NCCc1c[nH]c2ccc(O)cc12 [5-hydroxytryptamine]
apnea after administration [1]: induced prolonged central apneas | apnea after administration [2]: no apnea

CN(C)CCSc1nc2ccccc2cc1-c1ccccc1 [ICI 169 369]
slow wave sleep time (5HT2 receptor [3]): regulate or increase

CN(C)CCO/N=C(/C=C/c1ccc(O)cc1)c1ccccc1F [compound A, (1Z,2E)-1-(2-fluorophenyl)-3-(4-hydroxyphenyl)prop-2-en-1-one-O-(2-dimethylaminoethyl)oxime hemifumarate]
antagonism of the 5HT2A receptor (5HT2A receptor): antagonist which is specific for the 5HT2A receptor | activity on rat stomach fundus [4]: absence of activity | affinity for the 5HT1D receptor (5HT1D receptor): no affinity | affinity for the 5HT1A receptor (5HT1A receptor): no affinity | clinical symptoms [5]: reduction | number of wakings or microwakings [5]: marked reduction | respiratory efforts [5]: marked reduction | binding in the brain (5HT2 receptor [6]): predominantly binds to the regions of the brain containing the 5HT2 receptor | affinity for the 5HT2C receptor (5HT2C receptor): moderate affinity | paradoxical sleep (slow wave sleep): not being modified | stages 1 and 2 of slow wave sleep (slow wave sleep): slightly reduced | duration of stages 3 and 4 of slow wave sleep (slow wave sleep; from the dose of 1 mg): doubling | affinity for the 5HT1B receptor (5HT1B receptor): no affinity | depressant effect of 5-hydroxytryptamine on the activity of the hypoglossal nerve (spinal 5HT2 receptors): inhibits | tonic cervical activity induced by 5-hydroxytryptamine (spinal 5HT2 receptors; pretreatment): prevents or significantly reduces

O=C(c1ccc(F)cc1)C1CCN(CCn2c(=O)[nH]c3ccccc3c2=O)CC1 [ketanserin]
apnea induced by 5-HT (5HT2 receptor [7]): inhibit | increase in pulmonary resistance induced by 5-HT (5HT2 receptor [7]): inhibit

Cc1nc2sccn2c(=O)c1CCN1CCC(=C(c2ccc(F)cc2)c2ccc(F)cc2)CC1 [ritanserin]
slow wave sleep time (5HT2 receptor [3]): regulate or increase | activity of the diaphragm (5HT2 receptors): slight reduction | activity of the dilatory muscle of the upper respiratory tracts (5HT2 receptors): marked reduction

— patent US6576670B1, “Use of a 5HT2A and 5HT2A/C receptor antagonist for treating snoring and high resistance syndrome of upper anatomical airways” (Sanofi—Synthelabo, priority 1998, dated 2003)
